Source: ChEMBL document CHEMBL1909046, “DrugMatrix in vitro pharmacology data”
*1 amine or outer side, *2 acyl side, *3 side chain or, on linkers, in order; H or OH if unused. Where a SMILES comes first, the peptide text is derived from it. Bridges are numbered along the chain shown (N, C = ends). Roman numbers before positions name the chains, in order. [ ]: non-standard residue; d: D form. Actinocin(1to9) = Cc1c2oc3c(C)ccc(C(=O)[*:2])c3nc-2c(C(=O)[*:1])c(N)c1=O; NMeV = CN[C@H](C(=O)O)C(C)C; Sar = CNCC(=O)O

Columns and labels:
[1] = DRUGMATRIX: Phosphodiesterase PDE4 enzyme inhibition (substrate: [3H]cAMP + cAMP); settings: u-937; Not Active = under 50% inhibition at 10 µM
D(1A) dopamine receptor = D(1A) dopamine receptor (Homo sapiens, UniProt P21728); assay: DRUGMATRIX: Dopamine D1 radioligand binding (ligand: [3H] SCH-23390); format: cell membranes, CHO, Membrane; settings: Not Active = under 50% inhibition at 10 µM; for Ki: read-out: Ki
[2] = molecular target: C-C chemokine receptor type 5 (Homo sapiens, UniProt P51681); format: cell membranes, Membrane; settings: hek293; further: in other assays of this panel Not Active means under 50% inhibition at 10 µM
[3] = molecular target: Receptor tyrosine-protein kinase erbB-2 (Homo sapiens, UniProt P04626); assay: biochemical; format: cell-based, Insect cells;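 further: inhibition of HER2 kinase enzyme activity, measured with Poly(Glu:Tyr) as the phosphorylation substrate; in other assays of this panel Not Active means under 50% inhibition at 10 µM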
[4] = molecular target: Tyrosine-protein kinase Fyn (Homo sapiens, UniProt P06241); assay: biochemical; format: cell-based, Insect cells;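 further: enzymatic inhibition of Fyn kinase activity measured with Poly(Glu:Tyr) as the phosphorylation substrate; in other assays of this panel Not Active means under 50% inhibition at 10 µM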
[5] = molecular target: Mitogen-activated protein kinase 14 (Homo sapiens, UniProt Q16539); set-up: species or system Escherichia coli;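 further: inhibition of p38alpha enzyme activity in a biochemical kinase assay, with myelin basic protein serving as substrate; in other assays of this panel Not Active means under 50% inhibition at 10 µM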
Chain of Mitogen-activated protein kinase 14 (Q16539 whole entry): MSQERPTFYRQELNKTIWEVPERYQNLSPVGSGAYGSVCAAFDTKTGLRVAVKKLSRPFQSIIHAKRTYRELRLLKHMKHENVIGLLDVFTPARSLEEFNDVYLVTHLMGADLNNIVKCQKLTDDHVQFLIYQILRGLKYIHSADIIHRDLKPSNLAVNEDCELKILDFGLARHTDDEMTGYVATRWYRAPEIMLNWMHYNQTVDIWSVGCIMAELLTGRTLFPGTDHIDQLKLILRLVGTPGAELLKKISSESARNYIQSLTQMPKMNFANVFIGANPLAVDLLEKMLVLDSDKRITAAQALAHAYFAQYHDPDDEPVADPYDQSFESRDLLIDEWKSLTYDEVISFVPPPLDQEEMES

Chain of Receptor tyrosine-protein kinase erbB-2 (P04626 whole entry): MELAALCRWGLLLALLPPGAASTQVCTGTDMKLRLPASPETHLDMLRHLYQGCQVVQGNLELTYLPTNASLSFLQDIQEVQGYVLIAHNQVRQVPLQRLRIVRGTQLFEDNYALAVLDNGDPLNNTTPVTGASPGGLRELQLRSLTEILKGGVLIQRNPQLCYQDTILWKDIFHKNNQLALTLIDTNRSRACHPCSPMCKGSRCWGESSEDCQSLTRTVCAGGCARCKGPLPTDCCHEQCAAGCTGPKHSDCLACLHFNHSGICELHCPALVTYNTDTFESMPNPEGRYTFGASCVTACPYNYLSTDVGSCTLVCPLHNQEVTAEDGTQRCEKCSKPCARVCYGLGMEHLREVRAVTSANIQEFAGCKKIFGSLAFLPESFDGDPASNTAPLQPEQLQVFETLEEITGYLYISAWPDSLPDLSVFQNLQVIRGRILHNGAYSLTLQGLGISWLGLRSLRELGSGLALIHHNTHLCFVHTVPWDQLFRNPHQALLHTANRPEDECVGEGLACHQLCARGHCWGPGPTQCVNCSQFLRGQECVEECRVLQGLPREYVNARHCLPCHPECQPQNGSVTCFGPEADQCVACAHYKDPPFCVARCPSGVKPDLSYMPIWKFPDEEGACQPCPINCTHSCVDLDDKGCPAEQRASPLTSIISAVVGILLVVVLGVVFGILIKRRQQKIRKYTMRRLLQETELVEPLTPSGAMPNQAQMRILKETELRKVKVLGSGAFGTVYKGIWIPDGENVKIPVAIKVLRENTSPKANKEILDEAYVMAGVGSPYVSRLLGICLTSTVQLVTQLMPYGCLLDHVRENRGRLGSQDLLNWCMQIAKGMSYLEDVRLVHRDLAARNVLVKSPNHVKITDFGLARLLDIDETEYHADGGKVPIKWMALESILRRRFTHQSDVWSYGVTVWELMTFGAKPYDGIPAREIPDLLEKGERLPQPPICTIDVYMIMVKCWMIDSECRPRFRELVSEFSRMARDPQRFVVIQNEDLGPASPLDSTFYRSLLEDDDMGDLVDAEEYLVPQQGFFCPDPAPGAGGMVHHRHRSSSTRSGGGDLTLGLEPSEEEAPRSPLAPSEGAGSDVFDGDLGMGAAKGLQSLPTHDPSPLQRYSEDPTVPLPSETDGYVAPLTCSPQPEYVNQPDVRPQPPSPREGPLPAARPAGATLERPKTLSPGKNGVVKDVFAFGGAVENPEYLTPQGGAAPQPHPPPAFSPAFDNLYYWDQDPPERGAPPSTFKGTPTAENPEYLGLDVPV
Chain of D(1A) dopamine receptor (P21728 whole entry): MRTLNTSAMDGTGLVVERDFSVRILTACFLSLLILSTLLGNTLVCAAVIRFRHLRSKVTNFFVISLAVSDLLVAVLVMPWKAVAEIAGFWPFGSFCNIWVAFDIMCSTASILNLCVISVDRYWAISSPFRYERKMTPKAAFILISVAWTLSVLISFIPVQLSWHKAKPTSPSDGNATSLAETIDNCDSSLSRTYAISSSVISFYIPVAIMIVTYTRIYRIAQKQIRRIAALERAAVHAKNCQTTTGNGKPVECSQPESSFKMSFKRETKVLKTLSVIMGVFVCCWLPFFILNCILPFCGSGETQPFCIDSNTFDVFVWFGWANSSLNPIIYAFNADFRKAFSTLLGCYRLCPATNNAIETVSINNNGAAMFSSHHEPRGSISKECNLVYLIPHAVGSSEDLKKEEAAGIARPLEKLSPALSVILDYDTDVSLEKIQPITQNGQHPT
Chain of Tyrosine-protein kinase Fyn (P06241 whole entry): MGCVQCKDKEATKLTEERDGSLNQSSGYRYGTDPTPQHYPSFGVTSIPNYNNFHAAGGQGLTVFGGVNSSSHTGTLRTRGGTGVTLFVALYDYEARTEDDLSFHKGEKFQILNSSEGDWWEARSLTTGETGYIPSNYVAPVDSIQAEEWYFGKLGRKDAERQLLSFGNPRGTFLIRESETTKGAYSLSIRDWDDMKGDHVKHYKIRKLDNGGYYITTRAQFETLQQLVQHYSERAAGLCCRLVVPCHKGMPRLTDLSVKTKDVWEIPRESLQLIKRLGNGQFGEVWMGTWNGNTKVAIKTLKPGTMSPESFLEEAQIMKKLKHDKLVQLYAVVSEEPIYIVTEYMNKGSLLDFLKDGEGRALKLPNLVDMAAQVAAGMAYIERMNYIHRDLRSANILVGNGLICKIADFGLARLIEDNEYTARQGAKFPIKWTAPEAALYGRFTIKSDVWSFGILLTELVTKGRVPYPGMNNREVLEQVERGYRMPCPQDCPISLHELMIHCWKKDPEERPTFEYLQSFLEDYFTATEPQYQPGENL
Chain of C-C chemokine receptor type 5 (P51681 whole entry): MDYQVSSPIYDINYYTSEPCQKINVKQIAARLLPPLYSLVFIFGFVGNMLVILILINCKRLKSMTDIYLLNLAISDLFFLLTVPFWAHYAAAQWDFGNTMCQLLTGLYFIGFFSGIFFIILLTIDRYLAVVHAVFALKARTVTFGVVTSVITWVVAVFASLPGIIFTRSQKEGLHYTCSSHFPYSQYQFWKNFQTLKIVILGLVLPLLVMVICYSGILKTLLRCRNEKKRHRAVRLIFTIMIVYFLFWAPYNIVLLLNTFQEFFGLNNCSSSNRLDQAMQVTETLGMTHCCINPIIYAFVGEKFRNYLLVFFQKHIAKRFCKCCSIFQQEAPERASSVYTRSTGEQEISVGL

Row | Structure (SMILES) | IC50 [1] | Ki [1] | IC50 (D(1A) dopamine receptor; cho) | IC50 [2] | IC50 ([3]; insect cells) | IC50 ([4]; insect cells) | IC50 [5] | IC50 ([3]; read-out: IC50) [nM] | IC50 ([4]; read-out: IC50) [nM] | IC50 ([5]; read-out: IC50) [nM] | IC50 (D(1A) dopamine receptor; read-out: IC50) [nM] | Ki (D(1A) dopamine receptor) [nM]
1 | CC(C)(Oc1ccc(Cl)cc1)C(=O)O [CLOFIBRIC ACID] | Not Active | Not Active | Not Active | Not Active | Not Active | Not Active | Not Active | – | – | – | – | –
2 | Clc1cccc(Cl)c1NC1=NCCN1 [CLONIDINE] | Not Active | Not Active | Not Active | Not Active | Not Active | Not Active | Not Active | – | – | – | – | –
3 | Cc1cc(C(C#N)c2ccc(Cl)cc2)c(Cl)cc1NC(=O)c1cc(I)cc(I)c1O (configuration not stated) [CLOSANTEL] | Not Active | Not Active | Not Active | Not Active | – | – | – | 2470 | 939 | 656 | – | –
4 | Cc1onc(-c2ccccc2Cl)c1C(=O)N[C@@H]1C(=O)N2[C@@H]1SC(C)(C)[C@@H]2C(=O)O [CLOXACILLIN] | Not Active | Not Active | Not Active | Not Active | Not Active | Not Active | Not Active | – | – | – | – | –
5 | CC1CC(OC(=O)C(O)c2ccccc2)CC(C)(C)C1 (configuration not stated) [CYCLANDELATE] | Not Active | Not Active | Not Active | Not Active | Not Active | Not Active | Not Active | – | – | – | – | –
6 | Cc1c2oc3c(C)ccc(C(=O)N[C@@H]4C(=O)N[C@H](C(C)C)C(=O)N5CCC[C@H]5C(=O)N(C)CC(=O)N(C)[C@@H](C(C)C)C(=O)O[C@@H]4C)c3nc-2c(C(=O)N[C@@H]2C(=O)N[C@H](C(C)C)C(=O)N3CCC[C@H]3C(=O)N(C)CC(=O)N(C)[C@@H](C(C)C)C(=O)O[C@@H]2C)c(N)c1=O [DACTINOMYCIN] (I: T[dV]P[Sar][NMeV] / II: T[dV]P[Sar][NMeV]; ester I:1-I:C, II:1-II:C; linker I:N-II:N via Actinocin(1to9)) | Not Active | Not Active | Not Active | Not Active | Not Active | Not Active | Not Active | – | – | – | – | –
7 | Cc1c(O)c(=O)ccn1C [DEFERIPRONE] | Not Active | Not Active | Not Active | Not Active | Not Active | Not Active | Not Active | – | – | – | – | –
8 | CNCCCN1c2ccccc2CCc2ccccc21 [DESIPRAMINE] | Not Active | Not Active | Not Active | Not Active | Not Active | Not Active | Not Active | – | – | – | – | –
9 | O=c1oc2ccccc2c(O)c1Cc1c(O)c2ccccc2oc1=O [DICUMAROL] | Not Active | Not Active | Not Active | Not Active | Not Active | Not Active | Not Active | – | – | – | – | –
10 | C[C@H]1O[C@@H](O[C@H]2[C@@H](O)C[C@H](O[C@H]3[C@@H](O)C[C@H](O[C@H]4CC[C@@]5(C)[C@H](CC[C@@H]6[C@@H]5C[C@@H](O)[C@]5(C)[C@@H](C7=CC(=O)OC7)CC[C@]65O)C4)O[C@@H]3C)O[C@@H]2C)C[C@H](O)[C@@H]1O [DIGOXIN] | Not Active | Not Active | Not Active | Not Active | Not Active | Not Active | Not Active | – | – | – | – | –
11 | CC(C)[C@@]1(NC(=O)[C@@H]2C[C@@H]3c4cccc5[nH]cc(c45)C[C@H]3N(C)C2)O[C@@]2(O)[C@@H]3CCCN3C(=O)[C@H](Cc3ccccc3)N2C1=O.CS(=O)(=O)O [DIHYDROERGOCRISTINE MESYLATE] | Not Active | Not Active | – | Not Active | Not Active | Not Active | Not Active | – | – | – | 1180 | 589
12 | CC(=O)O[C@@]12CO[C@@H]1C[C@H](O)[C@@]1(C)C(=O)[C@H](O)C3=C(C)[C@@H](OC(=O)[C@H](O)[C@@H](NC(=O)OC(C)(C)C)c4ccccc4)C[C@@](O)([C@@H](OC(=O)c4ccccc4)[C@H]21)C3(C)C.O.O.O [DOCETAXEL] | Not Active | Not Active | Not Active | Not Active | Not Active | Not Active | Not Active | – | – | – | – | –
13 | COc1cc2nc(N3CCN(C(=O)C4COc5ccccc5O4)CC3)nc(N)c2cc1OC (configuration not stated) [DOXAZOSIN] | Not Active | Not Active | Not Active | Not Active | Not Active | Not Active | Not Active | – | – | – | – | –
14 | C[C@H]1c2cccc(O)c2C(=O)C2=C(O)[C@]3(O)C(=O)C(C(N)=O)=C(O)[C@@H](N(C)C)[C@@H]3[C@@H](O)[C@@H]21.O [DOXYCYCLINE] | Not Active | Not Active | Not Active | Not Active | Not Active | Not Active | Not Active | – | – | – | – | –
15 | O=C(CCCN1CC=C(n2c(=O)[nH]c3ccccc32)CC1)c1ccc(F)cc1 [DROPERIDOL] | Not Active | Not Active | – | Not Active | Not Active | Not Active | Not Active | – | – | – | 1090 | 546
16 | CC(C)[C@H]1C(=O)N2CCC[C@H]2[C@]2(O)O[C@](NC(=O)[C@@H]3C=C4c5cccc6[nH]cc(c56)C[C@H]4N(C)C3)(C(C)C)C(=O)N12 [ERGOCORNINE] | Not Active | Not Active | – | Not Active | Not Active | Not Active | Not Active | – | – | – | 294 | 147

Row | Structure (SMILES) | IC50 [1] | Ki [1] | IC50 (D(1A) dopamine receptor; cho) | IC50 [2] | IC50 ([3]; insect cells) | IC50 ([4]; insect cells) | IC50 [5] | IC50 ([3]; read-out: IC50) [nM] | IC50 ([4]; read-out: IC50) [nM] | IC50 ([5]; read-out: IC50) [nM] | IC50 (D(1A) dopamine receptor; read-out: IC50) [nM] | Ki (D(1A) dopamine receptor) [nM]
17 | C[C@]12CC[C@@H]3c4ccc(O)cc4CC[C@H]3[C@@H]1CCC2=O [ESTRONE] | Not Active | Not Active | Not Active | Not Active | Not Active | Not Active | Not Active | – | – | – | – | –
18 | OC(Cn1cncn1)(Cn1cncn1)c1ccc(F)cc1F [FLUCONAZOLE] | Not Active | Not Active | Not Active | Not Active | Not Active | Not Active | Not Active | – | – | – | – | –
19 | CC(C)C(=O)Nc1ccc([N+](=O)[O-])c(C(F)(F)F)c1 [FLUTAMIDE] | Not Active | Not Active | Not Active | Not Active | Not Active | Not Active | Not Active | – | – | – | – | –
20 | N=C(N)NCCN1CCCCCCC1 [GUANETHIDINE] | Not Active | Not Active | Not Active | Not Active | Not Active | Not Active | Not Active | – | – | – | – | –
21 | CC1(C)O[C@@H]2C[C@H]3[C@@H]4CCC5=CC(=O)CC[C@]5(C)[C@@]4(F)[C@@H](O)C[C@]3(C)[C@]2(C(=O)CCl)O1 [HALCINONIDE] | Not Active | Not Active | Not Active | Not Active | Not Active | Not Active | Not Active | – | – | – | – | –
22 | O=c1[nH]c(=O)n([C@H]2C[C@H](O)[C@@H](CO)O2)cc1I [IDOXURIDINE] | Not Active | Not Active | Not Active | Not Active | Not Active | Not Active | Not Active | – | – | – | – | –
23 | CC1Cc2ccccc2N1NC(=O)c1ccc(Cl)c(S(N)(=O)=O)c1 (configuration not stated) [INDAPAMIDE] | Not Active | Not Active | Not Active | Not Active | Not Active | Not Active | Not Active | – | – | – | – | –
24 | Nc1nc(N)nc(-c2cc(Cl)ccc2Cl)n1.O=C(O)/C=C\C(=O)O [IRSOGLADINE MALEATE] | Not Active | Not Active | Not Active | Not Active | Not Active | Not Active | Not Active | – | – | – | – | –
25 | CCC(C)n1ncn(-c2ccc(N3CCN(c4ccc(OCC5COC(Cn6cncn6)(c6ccc(Cl)cc6Cl)O5)cc4)CC3)cc2)c1=O (configuration not stated) [ITRACONAZOLE] | Not Active | Not Active | Not Active | Not Active | Not Active | – | Not Active | – | 3890 | – | – | –
26 | CCCCN1CCCC[C@H]1C(=O)Nc1c(C)cccc1C [LEVOBUPIVACAINE] | Not Active | Not Active | Not Active | Not Active | Not Active | Not Active | Not Active | – | – | – | – | –
27 | CCCCc1nc(Cl)c(CO)n1Cc1ccc(-c2ccccc2-c2nnn[nH]2)cc1 [LOSARTAN] | Not Active | Not Active | Not Active | Not Active | Not Active | Not Active | Not Active | – | – | – | – | –
28 | Sc1ncnc2nc[nH]c12 [MERCAPTOPURINE ANHYDROUS] | Not Active | Not Active | Not Active | Not Active | Not Active | Not Active | Not Active | – | – | – | – | –
29 | C[C@](N)(Cc1ccc(O)c(O)c1)C(=O)O [METHYLDOPA] | Not Active | Not Active | Not Active | Not Active | Not Active | – | Not Active | – | 5180 | – | – | –
30 | C[C@]12CCC(=O)C=C1CC[C@@H]1[C@@H]2CC[C@@]2(C)[C@H]1CC[C@]2(C)O [METHYLTESTOSTERONE] | Not Active | Not Active | Not Active | Not Active | Not Active | Not Active | Not Active | – | – | – | – | –
31 | Cc1ccccc1N1C(=O)c2cc(S(N)(=O)=O)c(Cl)cc2NC1C (configuration not stated) [METOLAZONE] | Not Active | Not Active | Not Active | Not Active | Not Active | Not Active | Not Active | – | – | – | – | –
32 | COCCc1ccc(OCC(O)CNC(C)C)cc1 (configuration not stated) [METOPROLOL] | Not Active | Not Active | Not Active | Not Active | Not Active | Not Active | Not Active | – | – | – | – | –
